tested on: Jurkat T cells; assay type: cell-based, human; details: IL-2 production level in treated group compared to control group; 48 hours treatment, then anti-CD3/anti-CD28 12 hours
Source text: Two preliminary screens were designed and performed.
To construct “blood chemical compound library for cell-based screening purposes, components such as antibodies that are difficult to distinguish due to a wide variety, and some supplements that only function at a whole organism level including fish oils and herbs were excluded. Physiological ranges of serum levels of individual blood chemicals are available in the human metabolome database (https://hmdb.ca/) and applied in the experimental design. For first screen 1a, Jurkat T cells were treated with blood chemical library for 48 hours and then activated with 2.5 μg/mL anti-CD3 and 0.5 μg/mL anti-CD28 antibodies for another 12 hours, followed by measurement of IL-2 level in medium supernatant using ELISA kit (Biolegend). For first screen 1b, 1×10^5 PD-1^+ Jurkat T cells were co-cultured with 2×10^4 H596 (PD-L1^+) cells in a well of 96-well plate for 60 hours, and then activated with 2.5 μg/mL anti-CD3 and 0.5 μg/mL anti-CD28 antibodies for another 12 hours, followed by measurement of IL-2 level in medium supernatant using ELISA kit. Please also refer to Resources Table and Table 1-2 for more details.

Row | Compound | Relative changed percentage (%)
1 | CC(=O)O[C@H]1CC[C@@]2(C)C(=CC[C@H]3[C@@H]4CC[C@H](C(C)=O)[C@@]4(C)CC[C@@H]32)C1 [Pregnenolone Acetate] | 82.91%
2 | OC[C@H]1O[C@@H](Oc2c[nH]c3ccccc23)[C@H](O)[C@@H](O)[C@@H]1O [INDOXYL beta-D-GLUCOSIDE] | 30.46%
3 | N[C@@H](CO)C(=O)O [L-Serine] | −22.11%
4 | [Cl-].[Cl-].[Zn+2] [ZINC CHLORIDE] | 13.34%
5 | c1ncc2[nH]cnc2n1 [PURINE] | 63.4263%
6 | L-a-Phosphatidylcholine | −37.16%
7 | Chromium picolinate | −4.067%
8 | O=S(=O)([O-])[O-].[O]=[V+2] [Vanadylsulfate] | 7.094%
9 | CC(=O)N[C@H]1C(O)O[C@H](CO)[C@@H](O)[C@@H]1O (stereo partly drawn) [N-acetyl D-glucosamine] | −4.044%
10 | Chondroitin sulfate sodium | −11.46%
11 | OC[C@H]1O[C@@](CO)(O[C@H]2O[C@H](CO)[C@@H](O)[C@H](O)[C@H]2O)[C@@H](O)[C@@H]1O [SUCROSE] | 70.45%
12 | Cc1cc(O)cc2c1O[C@](C)(CCC[C@H](C)CCC[C@H](C)CCCC(C)C)CC2 [(+)-DELTA-TOCOPHEROL] | 41.42%
13 | Bromelain from pineapple stem | 16.0114%
14 | O=S(=O)([O-])[O-].[Cu+2] [COPPER(II) SULFATE, ANHYDROUS,/copper, COPPER(II) SULFATE, ANHYDROUS] | 51.65%
15 | ARG8-VASOPRESSIN ACETATE SALT | −7.61%
16 | N[C@@H](CC(=O)[O-])C(=O)[O-].[Mg+2] [Magnesium Aspartate] | −4.156%
17 | O.OC[C@H]1O[C@@H](O[C@H]2[C@H](O)[C@@H](O)C(O)O[C@@H]2CO)[C@H](O)[C@@H](O)[C@H]1O (stereo partly drawn) [D-LACTOSE MONOHYDRATE] | 22.47%
18 | NCCc1c[nH]cn1 [HISTAMINE FREE BASE CRYSTALLINE, HISTAMINE FREE BASE] | −3.594%
19 | O=C([O-])[O-].[Ca+2] [Calcium Carbonate] | −8.75%
20 | N[C@@H](CCC(=O)O)C(=O)O [L-Glutamic Acid] | 2.2718%
21 | O=C1O[C@H]([C@@H](O)CO)C(O)=C1O [L-ASCORBIC ACID] | 14.49%
22 | O=C([O-])CC(O)(CC(=O)[O-])C(=O)[O-].O=C([O-])CC(O)(CC(=O)[O-])C(=O)[O-].[Ca+2].[Ca+2].[Ca+2] [Calcium citrate] | −14.58%
23 | CCO [ALCOHOL] | 9.841%
24 | Sphingomyelin | 95.24%
25 | Cc1ncc(CO)c(CO)c1O [PYRIDOXINE] | 11.1111%

Row | Compound | Relative changed percentage (%)
26 | PROINSULIN C-PEPTIDE (55-89) [PROINSULIN C-PEPTIDE (55-89)/c-peptide] | 17.8836%
27 | GLYCOGEN | 13.75%
28 | O[C@H]1[C@H](O)[C@@H](O)[C@H](O)[C@@H](O)[C@H]1O [Inositol] | 15.38%
29 | CC(C)=CCC/C(C)=C/C=C/C(C)=C/C=C/C(C)=C/C=C/C=C(C)/C=C/C=C(C)/C=C/C=C(\C)CCC=C(C)C [Lycopene] | 30%
30 | [Cl-].[K+] [POTASSIUM CHLORIDE/potassium, POTASSIUM CHLORIDE] | 38.97%
31 | Cl.NCCC[C@H](N)C(=O)O [L-ORNITHINE MONOHYDROCHLORIDE] | 8.054%
32 | D-(+)-MALTOSE MONOHYDRATE | −4.914%
33 | ZINC SULFATE HEPTAHYDRATE | 1.046%
34 | CCCCC/C=C\C/C=C\C/C=C\C/C=C\CCCC(=O)O [Arachidonic acid] | 4.583%
35 | C[N+](C)(C)CC(=O)[O-] [Trimethylglycine] | 9.459%
36 | O=S(=O)([O-])[O-].[Na+].[Na+] [SODIUM SULFATE] | 38.99%
37 | COC1=C(OC)C(=O)C(C/C=C(\C)CC/C=C(\C)CC/C=C(\C)CC/C=C(\C)CC/C=C(\C)CC/C=C(\C)CC/C=C(\C)CC/C=C(\C)CC/C=C(\C)CCC=C(C)C)=C(C)C1=O [CoQ-10] | 26.54%
38 | [Cl][Cr]([Cl])[Cl] [Chromium Chloride] | −35.28%
39 | CELLULOSE FIBROUS | −13.2%
40 | FERRITIN TYPE IV FROM HUMAN LIVER | 9.075%
41 | CC(=O)CC(=O)[O-].[Li+] [LITHIUM ACETOACETATE/Acetoacetic acid, LITHIUM ACETOACETATE] | −21.48%
42 | Cl.N[C@@H](Cc1c[nH]cn1)C(=O)O [L-Histidine hydrochloride] | 3.531%
43 | CN(CC(=O)O)C(=N)N [Creatine] | −40.99%
44 | C[C@]12CCC(=O)C=C1CC[C@@H]1[C@@H]2C(=O)C[C@@]2(C)[C@H]1CC[C@]2(O)C(=O)CO [CORTISONE] | −12.29%
45 | PECTIN | −4.914%
46 | CCCCCCCC/C=C\CCCCCCCCCCCC(=O)O [Erucic acid] | 10.71%
47 | C[C@H](O)C(=O)[O-].[Na+] [L(+)LACTIC ACID SODIUM] | 5.082%
48 | NC[C@H](O)c1ccc(O)c(O)c1 [NOREPINEPHRINE] | 40.2469%
49 | Copper Gluconate | 4.0672%
50 | O=c1c(O)c(-c2ccc(O)c(O)c2)oc2cc(O)cc(O)c12 [Quercetin] | −4.501%

Row | Compound | Relative changed percentage (%)
51 | C[C@]12CCC(=O)C=C1CC[C@@H]1[C@@H]2CC[C@]2(C)C(=O)CC[C@@H]12 [ANDROSTENEDIONE] | 25.93%
52 | O=[Se](O)O [sodium selenite] | 13.27%
53 | Nc1nc2c(ncn2[C@@H]2O[C@@H]3COP(=O)([O-])O[C@H]3[C@H]2O)c(=O)[nH]1.[Na+] [GUANOSINE 3′:5′-CYCLIC MONOPIIOSPIIATE SODIUM] | 8.266%
54 | NS(=O)(=O)c1cc(C(=O)O)c(NCc2ccco2)cc1Cl [FUROSEMIDE/LASIX, FUROSEMIDE, reference compound] | 29.01%
55 | Magnesium citrate | 3.782%
56 | Silicic acid | −1.03%
57 | O=C([O-])CC(O)(CC(=O)[O-])C(=O)[O-].O=C([O-])CC(O)(CC(=O)[O-])C(=O)[O-].[Zn+2].[Zn+2].[Zn+2] [Zinc Citrate] | −2.073%
58 | CC(=O)C(=O)O [PYRUVIC ACID] | 10.42%
59 | O=C(O)CCCCC1CCSS1 (racemic) [DL-6,8-Thioctic Acid] | −4.135%
60 | Gelatin | 59.8%
61 | COc1ccc2[nH]cc(CCNC(C)=O)c2c1 [MELATONIN CRYSTALLINE/melatonin, melatonin] | 56.15%
62 | NC(N)=O [UREA] | −0.3112%
63 | androsterone [AN[…],/androsterone] | 15.91%
64 | Zinc Picolinate | 5.492%
65 | O=C[C@H](O)[C@@H](O)[C@H](O)[C@H](O)C(=O)O [D-Glucuronic Acid] | −45.8%
66 | IZING HORMONE RELEASING HORMONE HUMAN AC | −19.59%
67 | Cl.N=C(N)N [GUANIDINE IIYDROCIILORIDE,, GUANIDINE IIYDROCIILORIDE] | 41.83%
68 | CC(C)CCCC(C)CCCC(C)CCCC(C)CC(=O)O (centres unmarked) [PHYTANIC ACID] | −18.61%
69 | CC/C=C\C/C=C\C/C=C\CCCCCCCC(=O)O [Alpha-linolenic acid] | −24.53%
70 | C[C@]12CCC(=O)C=C1CC[C@@H]1[C@@H]2CC[C@@]2(C)[C@H]1CC[C@]2(O)C(=O)CO [11-DEOXYCORTISOL/Cortexolone, 11-DEOXYCORTISOL] | 21.85%
71 | Nc1ncnc2c1ncn2[C@@H]1O[C@H](COP(=O)([O-])OP(=O)([O-])OP(=O)(O)O)[C@@H](O)[C@H]1O.[Na+].[Na+] [Adenosine 5′-Triphosphate Disodium] | −38.28%
72 | CCCCCCCC/C=C\CCCCCCCC(=O)O [Oleic acid] | 77.53%
73 | COc1cc(/C=C/c2ccc(O)cc2)cc(OC)c1 [Pterostibene] | 6.874%

same assay, conditions: IL-2 production level in treated group compared to control group; 48 hours treatment, then anti-CD3/anti-CD28 12 hours; Hydrochloride

Row | Compound | Relative changed percentage (%)
74 | Cl.N[C@H]1C(O)O[C@H](CO)[C@@H](O)[C@@H]1O (stereo partly drawn) [D-(+)-Glucosamine Hydrochloride] | −38.23%
75 | Cl.N[C@H]1C(O)O[C@H](CO)[C@@H](O)[C@@H]1O (some centres unmarked) [Glucosamine Hydrochloride] | −6.979%

same assay, conditions: IL-2 production level in treated group compared to control group; 48 hours treatment, then anti-CD3/anti-CD28 12 hours; listed as HYALURONIC ACID SODIUM SALT, sodium salt

Row | Compound | Relative changed percentage (%)
76 | Hyaluronic acid sodium salt | −9.738%

same assay, conditions: IL-2 production level in treated group compared to control group; 48 hours treatment, then anti-CD3/anti-CD28 12 hours; sodium salt

Row | Compound | Relative changed percentage (%)
77 | Hyaluronic acid sodium salt | 3.093%

— patent US20250221953A1 (The University of Chicago, priority 2022, published 2025)
